Patent US10597388B2, “Pyridazinone herbicides” (FMC CORPORATION, priority 2014, dated 2020)

How the values were obtained:
Type in all cases: in vivo
kochia (Kochia scoparia) = assay: Test C greenhouse herbicide test, postemergence
Summary of the method: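 Seedlings are raised in pots of peat moss–vermiculite medium with starter nutrients, then receive postemergence test chemical at the 1- to 4-leaf stage. They are kept in the greenhouse 13 to 15 d and scored visually versus controls, 0 meaning no effect and 100 complete control.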

[1] = tested on: ryegrass, Italian (Italian ryegrass, Lolium multiflorum); assay: Test C greenhouse herbicide test, pre- and postemergence
Summary of the method: (§1)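 Two application timings: at sowing into a soil/sand blend, and on 2–18 cm seedlings in peat-vermiculite potting mix. A non-phytotoxic, surfactant-containing solvent carried the compounds. Plants were compared with controls and rated visually on 0–100 after 13–15 d.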

[2] = tested on: foxtail, giant (giant foxtail, Setaria faberii); assay: as above
Summary of the method: as §1

[3] = tested on: lambsquarters (Chenopodium album); assay: as above
Summary of the method: as §1

[4] = tested on: crabgrass, large (large crabgrass, Digitaria sanguinalis); assay: as above
Summary of the method: as §1

[5] = tested on: ragweed (common ragweed, Ambrosia elatior); assay: as above
Summary of the method: as §1

corn (Zea mays) = assay: as above
Summary of the method: as §1

[6] = tested on: nutsedge, yellow (yellow nutsedge, Cyperus esculentus); assay: as above
Summary of the method: as §1

[7] = tested on: johnsongrass (Sorghum halepense); assay: as above
Summary of the method: as §1

[8] = tested on: wheat (winter wheat, Triticum aestivum); assay: as above
Summary of the method: as §1

[9] = tested on: oilseed rape (Brassica napus); assay: as above
Summary of the method: as §1

[10] = tested on: morningglory (Ipomoea coccinea); assay: as above
Summary of the method: as §1

[11] = tested on: pigweed (Amaranthus retroflexus); assay: as above
Summary of the method: as §1

[12] = tested on: waterhemp (common waterhemp, Amaranthus rudis); assay: as above
Summary of the method: as §1

[13] = tested on: blackgrass (Alopecurus myosuroides); assay: as above
Summary of the method: as §1

soybean (Glycine max) = assay: as above
Summary of the method: as §1

[14] = Postemergence, 31 g ai/ha, 0 to 100 scale (0 no effect, 100 complete control)
[15] = Postemergence, 125 g ai/ha, scale 0 to 100, 0 is no effect, 100 is complete control
[16] = Postemergence, 250 g ai/ha, scale 0 to 100, 0 no effect, 100 complete control, 13 to 15 d
[17] = postemergence, 62 g ai/ha, scale 0 to 100, 0 no effect, 100 complete control
[18] = Preemergence, 31 g ai/ha, scale 0 to 100, 0 is no effect, 100 is complete control
[19] = Preemergence, 62 g ai/ha, scale 0 to 100, 0 is no effect, 100 is complete control
[20] = Preemergence, 125 g ai/ha, scale 0 to 100, 0 is no effect, 100 is complete control
[21] = Preemergence, 250 g ai/ha, scale 0 to 100 (0 no effect, 100 complete control)

Compound: CCC(=O)Oc1c(C)nn(C)c(=O)c1-c1c(C)sc2ccc(C)cc12 [Compound 42]
- Kochia plant response rating (kochia (Kochia scoparia); [14]): 90
- Plant response rating, Kochia (kochia (Kochia scoparia); [15]): 100
- Plant response rating, Kochia (kochia (Kochia scoparia); [16]): 100
- Kochia plant response rating (kochia (Kochia scoparia); [17]): 100
- Ryegrass, Italian plant response rating [1, 14]: 65
- Plant response rating, Ryegrass, Italian [1, 15]: 90
- Plant response rating, Ryegrass, Italian [1, 16]: 95
- Plant response rating, Ryegrass, Italian [1, 18]: 85
- Plant response rating, Ryegrass, Italian [1, 19]: 90
- Plant response rating, Ryegrass, Italian [1, 20]: 90
- Ryegrass, Italian plant response rating [1, 21]: 90
- Ryegrass, Italian plant response rating [1, 17]: 90
- Foxtail, Giant plant response rating [2, 14]: 25
- Plant response rating, Foxtail, Giant [2, 15]: 35
- Plant response rating, Foxtail, Giant [2, 16]: 80
- Plant response rating, Foxtail, Giant [2, 18]: 75
- Plant response rating, Foxtail, Giant [2, 19]: 80
- Plant response rating, Foxtail, Giant [2, 20]: 90
- Foxtail, Giant plant response rating [2, 21]: 100
- Foxtail, Giant plant response rating [2, 17]: 30
- Lambsquarters plant response rating [3, 14]: 85
- Plant response rating, Lambsquarters [3, 15]: 100
- Plant response rating, Lambsquarters [3, 16]: 98
- Plant response rating, Lambsquarters [3, 18]: 85
- Plant response rating, Lambsquarters [3, 19]: 80
- Plant response rating, Lambsquarters [3, 20]: 85
- Lambsquarters plant response rating [3, 21]: 90
- Lambsquarters plant response rating [3, 17]: 95
- Crabgrass, Large plant response rating [4, 14]: 10
- Plant response rating, Crabgrass, Large [4, 15]: 20
- Plant response rating, Crabgrass, Large [4, 16]: 20
- Plant response rating, Crabgrass, Large [4, 18]: 55
- Plant response rating, Crabgrass, Large [4, 19]: 70
- Plant response rating, Crabgrass, Large [4, 20]: 80
- Crabgrass, Large plant response rating [4, 21]: 85
- Crabgrass, Large plant response rating [4, 17]: 15
- Ragweed plant response rating [5, 14]: 90
- Plant response rating, Ragweed [5, 15]: 98
- Plant response rating, Ragweed [5, 16]: 100
- Plant response rating, Ragweed [5, 18]: 90
- Plant response rating, Ragweed [5, 19]: 90
- Plant response rating, Ragweed [5, 20]: 95
- Ragweed plant response rating [5, 21]: 100
- Ragweed plant response rating [5, 17]: 85
- Corn plant response rating (corn (Zea mays); [14]): 0
- Plant response rating, Corn (corn (Zea mays); [15]): 5
- Plant response rating, Corn (corn (Zea mays); [16]): 5
- Plant response rating, Corn (corn (Zea mays); [18]): 0
- Plant response rating, Corn (corn (Zea mays); [19]): 0
- Plant response rating, Corn (corn (Zea mays); [20]): 10
- Corn plant response rating (corn (Zea mays); [21]): 35
- Corn plant response rating (corn (Zea mays); [17]): 5
- Nutsedge, Yellow plant response rating [6, 14]: 65
- Plant response rating, Nutsedge, Yellow [6, 16]: 95
- Plant response rating, Nutsedge, Yellow [6, 18]: 55
- Plant response rating, Nutsedge, Yellow [6, 19]: 60
- Plant response rating, Nutsedge, Yellow [6, 20]: 40
- Nutsedge, Yellow plant response rating [6, 21]: 80
- Nutsedge, Yellow plant response rating [6, 17]: 75
- Johnsongrass plant response rating [7, 14]: 5
- Plant response rating, Johnsongrass [7, 16]: 25
- Plant response rating, Johnsongrass [7, 18]: 0
- Plant response rating, Johnsongrass [7, 19]: 0
- Plant response rating, Johnsongrass [7, 20]: 5
- Johnsongrass plant response rating [7, 21]: 30
- Johnsongrass plant response rating [7, 17]: 5
- Wheat plant response rating [8, 14]: 0
- Plant response rating, Wheat [8, 15]: 0
- Plant response rating, Wheat [8, 16]: 0
- Plant response rating, Wheat [8, 18]: 0
- Plant response rating, Wheat [8, 19]: 0
- Plant response rating, Wheat [8, 20]: 0
- Wheat plant response rating [8, 21]: 5
- Wheat plant response rating [8, 17]: 0
- Oilseed Rape plant response rating [9, 14]: 0
- Plant response rating, Oilseed Rape [9, 15]: 10
- Plant response rating, Oilseed Rape [9, 16]: 0
- Plant response rating, Oilseed Rape [9, 18]: 0
- Plant response rating, Oilseed Rape [9, 19]: 0
- Plant response rating, Oilseed Rape [9, 20]: 5
- Oilseed Rape plant response rating [9, 21]: 20
- Oilseed Rape plant response rating [9, 17]: 5
- Morningglory plant response rating [10, 14]: 75
- Plant response rating, Morningglory [10, 15]: 100
- Plant response rating, Morningglory [10, 16]: 100
- Plant response rating, Morningglory [10, 18]: 85
- Plant response rating, Morningglory [10, 19]: 98
- Plant response rating, Morningglory [10, 20]: 98
- Morningglory plant response rating [10, 21]: 98
- Morningglory plant response rating [10, 17]: 100
- Pigweed plant response rating [11, 14]: 85
- Plant response rating, Pigweed [11, 15]: 98
- Plant response rating, Pigweed [11, 16]: 98
- Plant response rating, Pigweed [11, 18]: 100
- Plant response rating, Pigweed [11, 19]: 100
- Plant response rating, Pigweed [11, 20]: 100
- Pigweed plant response rating [11, 21]: 100
- Pigweed plant response rating [11, 17]: 95
- Waterhemp plant response rating [12, 14]: 75
- Plant response rating, Waterhemp [12, 15]: 98
- Plant response rating, Waterhemp [12, 16]: 95
- Plant response rating, Waterhemp [12, 18]: 80
- Plant response rating, Waterhemp [12, 19]: 98
- Plant response rating, Waterhemp [12, 20]: 100
- Waterhemp plant response rating [12, 21]: 100
- Waterhemp plant response rating [12, 17]: 85
- Blackgrass plant response rating [13, 14]: 30
- Plant response rating, Blackgrass [13, 15]: 60
- Plant response rating, Blackgrass [13, 16]: 70
- Plant response rating, Blackgrass [13, 18]: 40
- Plant response rating, Blackgrass [13, 19]: 85
- Plant response rating, Blackgrass [13, 20]: 90
- Blackgrass plant response rating [13, 21]: 90
- Blackgrass plant response rating [13, 17]: 35
- Soybean plant response rating (soybean (Glycine max); [14]): 0
- Plant response rating, Soybean (soybean (Glycine max); [15]): 10
- Plant response rating, Soybean (soybean (Glycine max); [16]): 15
- Plant response rating, Soybean (soybean (Glycine max); [18]): 35
- Plant response rating, Soybean (soybean (Glycine max); [19]): 0
- Plant response rating, Soybean (soybean (Glycine max); [20]): 0
- Soybean plant response rating (soybean (Glycine max); [21]): 5
- Soybean plant response rating (soybean (Glycine max); [17]): 5
